From the NIST ThermoML archive (doi:10.1016/j.fluid.2015.12.007)

Experiment: xn = mol fraction of the nth substance listed
Details: 101 kPa, Liquid; for speed of sound: Sing-around technique in a fixed-path interferometer; for mass density: Vibrating tube method

CCCCn1cc[n+](C)c1.COS(=O)(=O)[O-] [1-butyl-3-methylimidazolium methyl sulfate] + CC(O)CO
Details	mass density [kg/m3]	speed of sound [m/s]
293.15 K, x1 = 0.0574	1061.11	1541.9
293.15 K, x1 = 0.1155	1081.09	1554.6
293.15 K, x1 = 0.2102	1107.07	1573.6
293.15 K, x1 = 0.3133	1130.01	1591.4
293.15 K, x1 = 0.4151	1148.5	1602.8
293.15 K, x1 = 0.5038	1162.16	1613.5
293.15 K, x1 = 0.6026	1174.98	1626
293.15 K, x1 = 0.6996	1185.85	1636.8
293.15 K, x1 = 0.8095	1196.11	1649.4
293.15 K, x1 = 0.9003	1204.12	1660.2
298.15 K, x1 = 0.0574	1057.45	1528.2
298.15 K, x1 = 0.1155	1077.45	1541.1
298.15 K, x1 = 0.2102	1103.5	1560.2
298.15 K, x1 = 0.3133	1126.47	1578.4
298.15 K, x1 = 0.4151	1145.03	1589.9
298.15 K, x1 = 0.5038	1158.71	1600.8
298.15 K, x1 = 0.6026	1171.59	1613.1
298.15 K, x1 = 0.6996	1182.44	1624.2
298.15 K, x1 = 0.8095	1192.74	1636.8
298.15 K, x1 = 0.9003	1200.82	1647.5
303.15 K, x1 = 0.0574	1053.78	1514.5
303.15 K, x1 = 0.1155	1073.81	1527.5
303.15 K, x1 = 0.2102	1099.9	1546.9
303.15 K, x1 = 0.3133	1122.94	1565.2
303.15 K, x1 = 0.4151	1141.57	1577.1
303.15 K, x1 = 0.5038	1155.27	1588.2
303.15 K, x1 = 0.6026	1168.22	1600.5
303.15 K, x1 = 0.6996	1179.05	1611.8
303.15 K, x1 = 0.8095	1189.38	1624.5
303.15 K, x1 = 0.9003	1197.47	1635
308.15 K, x1 = 0.0574	1050.08	1500.8
308.15 K, x1 = 0.1155	1070.14	1513.9
308.15 K, x1 = 0.2102	1096.3	1533.6
308.15 K, x1 = 0.3133	1119.41	1552.2
308.15 K, x1 = 0.4151	1138.1	1564.4
308.15 K, x1 = 0.5038	1151.85	1575.8
308.15 K, x1 = 0.6026	1164.85	1588.2
308.15 K, x1 = 0.6996	1175.66	1599.6
308.15 K, x1 = 0.8095	1186.03	1612.3
308.15 K, x1 = 0.9003	1194.14	1622.9
313.15 K, x1 = 0.0574	1046.36	1487.1
313.15 K, x1 = 0.1155	1066.46	1500.4
313.15 K, x1 = 0.2102	1092.68	1520.3
313.15 K, x1 = 0.3133	1115.88	1539.2
313.15 K, x1 = 0.4151	1134.64	1551.8
313.15 K, x1 = 0.5038	1148.44	1563.4
313.15 K, x1 = 0.6026	1161.48	1576
313.15 K, x1 = 0.6996	1172.29	1587.6
313.15 K, x1 = 0.8095	1182.71	1600.3
313.15 K, x1 = 0.9003	1190.84	1610.9
318.15 K, x1 = 0.0574	1042.62	1473.6
318.15 K, x1 = 0.1155	1062.78	1487.1
318.15 K, x1 = 0.2102	1089.06	1507.4
318.15 K, x1 = 0.3133	1112.34	1526.4
318.15 K, x1 = 0.4151	1131.18	1539.2
318.15 K, x1 = 0.5038	1145.05	1551.5
318.15 K, x1 = 0.6026	1158.11	1563.8
318.15 K, x1 = 0.6996	1168.92	1576
318.15 K, x1 = 0.8095	1179.39	1588.5
318.15 K, x1 = 0.9003	1187.56	1599
